IC50 and Kd data for eleven compounds are collected here from patent US20250368666A1, “INDAZOLE COMPOUNDS” (TYRA BIOSCIENCES, INC., priority 2022, published 2025).

Structures are written as SMILES.

For test [1], the system named is RT112/84 cell line (FGFR3-fusion). As to the kind of experiment: Cancer cell line cell viability assay (Cell Titer-Glo), 72 hr. It is filed as cell-based. Particulars: Homo sapiens, RT112/84, RT112/84 cell line (FGFR3-fusion). The method, boiled down: (§1)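 Cells seeded at 5,000-20,000/well, incubated overnight, then treated with a 9-dose, 4-fold dilution series from 3 μM in triplicate at 37° C, 5% CO2. Viability read by Cell Titer-Glo 2.0 luminescence as percent of DMSO control; IC50 from 4-parameter variable-slope sigmoidal fit.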
In general terms: ATP-based viability assays read luminescence as a measure of living cells.

The test system of test [2] is KATO-III cell line (FGFR2 amplification). The test is described as above. The class given is cell-based. The following applies: Homo sapiens, KATO III. The method, boiled down: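 Intracellular ATP was measured by Cell Titer-Glo 2.0 luminescence after cells were incubated with compound dilutions (top 3 μM, 4-fold, 9 doses). Values were expressed relative to DMSO-treated cells and IC50 was calculated from a variable-slope dose-response curve.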

In test [3] the test system is KG-1 cell line (FGFR 1-fusion). The test is described as above. The class given is cell-based. Particulars: Homo sapiens, KG-1, KG-1 cell line (FGFR1-fusion). The method, boiled down: as §1
In test [4] the target is T1, FGFR3 (V555M) (Homo sapiens, UniProt P22607, V555M).
T1 construct: made in house; host or cells: E. coli (BL21-derived), T7 phage
T1 sequence (P22607 23-806 V555M): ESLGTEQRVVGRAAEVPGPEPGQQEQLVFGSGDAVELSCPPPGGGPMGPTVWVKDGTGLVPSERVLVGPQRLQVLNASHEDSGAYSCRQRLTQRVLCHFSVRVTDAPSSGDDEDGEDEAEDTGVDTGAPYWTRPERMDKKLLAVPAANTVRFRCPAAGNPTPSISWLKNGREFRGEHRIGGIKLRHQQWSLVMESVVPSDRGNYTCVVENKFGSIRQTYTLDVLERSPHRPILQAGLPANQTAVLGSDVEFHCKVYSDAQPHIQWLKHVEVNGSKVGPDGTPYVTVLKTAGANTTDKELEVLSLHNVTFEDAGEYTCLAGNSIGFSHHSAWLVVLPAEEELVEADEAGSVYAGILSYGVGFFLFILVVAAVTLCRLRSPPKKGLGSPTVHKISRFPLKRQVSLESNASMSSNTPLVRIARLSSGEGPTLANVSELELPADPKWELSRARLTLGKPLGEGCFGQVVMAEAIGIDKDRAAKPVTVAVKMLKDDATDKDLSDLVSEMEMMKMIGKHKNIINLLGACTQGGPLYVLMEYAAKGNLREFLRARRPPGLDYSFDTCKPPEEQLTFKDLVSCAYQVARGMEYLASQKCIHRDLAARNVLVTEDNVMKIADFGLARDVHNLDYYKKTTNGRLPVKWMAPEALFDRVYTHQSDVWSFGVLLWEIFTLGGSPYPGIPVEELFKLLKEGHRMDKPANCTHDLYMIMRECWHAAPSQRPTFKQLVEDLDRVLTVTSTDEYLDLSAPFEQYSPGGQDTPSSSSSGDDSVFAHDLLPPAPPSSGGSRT
As to the kind of experiment: Kinase binding assay (kinase-tagged T7 phage, affinity beads, qPCR), Kd. The following applies: V555M mutant; read-out: FGFR3 (V555M) (Kd nM). The method, boiled down:
(§2)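 T7 phage displaying each kinase, grown in a BL21-derived E. coli host at 32° C until lysis, competed with test compound for biotinylated ligand immobilised on streptavidin beads. Bead-bound kinase was eluted and quantified by qPCR. Kd came from an 11-point 3-fold dilution series fitted to the Hill equation with slope fixed at −1.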
For orientation: Quantitative PCR measures a nucleic acid by following its amplification.

In test [5] the target is T2, FGFR3 (Homo sapiens, UniProt P22607).
T2 construct: made in house; host or cells: E. coli (BL21-derived), T7 phage
T2 sequence (P22607 23-806): as the sequence (P22607 23-806 V555M) above, with M533V counted along it
The description is as above. Particulars: read-out: FGFR3 (Kd nM). The method, boiled down: as §2

In test [6] the target is T3, FGFR4 (Homo sapiens, UniProt P22455).
T3 construct: made in house; host or cells: E. coli (BL21-derived), T7 phage
T3 sequence (P22455 22-802): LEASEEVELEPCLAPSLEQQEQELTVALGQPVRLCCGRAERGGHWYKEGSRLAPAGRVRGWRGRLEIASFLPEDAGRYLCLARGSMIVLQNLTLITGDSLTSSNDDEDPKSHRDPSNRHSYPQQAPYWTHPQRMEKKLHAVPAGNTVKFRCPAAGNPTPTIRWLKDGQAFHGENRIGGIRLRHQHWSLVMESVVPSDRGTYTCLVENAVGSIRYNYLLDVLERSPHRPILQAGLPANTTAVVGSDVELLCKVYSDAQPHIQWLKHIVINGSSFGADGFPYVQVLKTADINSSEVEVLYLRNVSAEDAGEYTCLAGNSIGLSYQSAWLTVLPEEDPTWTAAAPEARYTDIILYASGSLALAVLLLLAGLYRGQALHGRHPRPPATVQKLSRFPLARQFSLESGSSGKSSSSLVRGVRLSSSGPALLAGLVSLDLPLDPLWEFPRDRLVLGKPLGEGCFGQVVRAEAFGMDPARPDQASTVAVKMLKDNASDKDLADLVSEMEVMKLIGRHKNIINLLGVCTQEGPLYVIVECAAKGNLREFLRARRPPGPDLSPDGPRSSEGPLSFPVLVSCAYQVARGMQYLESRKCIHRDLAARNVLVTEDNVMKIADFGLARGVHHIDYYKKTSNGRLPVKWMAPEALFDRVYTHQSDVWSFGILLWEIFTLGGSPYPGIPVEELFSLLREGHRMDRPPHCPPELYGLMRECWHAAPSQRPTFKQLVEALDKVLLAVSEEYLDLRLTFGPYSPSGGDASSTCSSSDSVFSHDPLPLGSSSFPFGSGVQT
The test is described as above. Particulars: read-out: FGFR4 (Kd nM). The method, boiled down:
as §2

Test [7] has as its target T4, FGFR1 (Homo sapiens, UniProt P11362).
T4 construct: made in house; host or cells: E. coli (BL21-derived), T7 phage
The test is described as above. The following applies: read-out: FGFR1 (Kd nM). The method, boiled down: as §2

Test [8] addresses T5, FGFR2 (Homo sapiens, UniProt P21802).
T5 construct: made in house; host or cells: E. coli (BL21-derived), T7 phage
Described as above. The following applies: read-out: FGFR2 (Kd nM). The method, boiled down: as §2

Test [9] has as its system HuH7 cell line (FGF19 amplification). In words: Cancer cell line cell viability assay (Cell Titer-Glo), 120 hr. It is filed as cell-based. Particulars: Homo sapiens, Huh-7. The method, boiled down: as §1
The subject of test [10] is MDA-MB-453 cell line (FGFR4-Y367C). Described as above. It is filed as cell-based. Particulars: Homo sapiens. The method, boiled down:
as §1

T4 sequence (P11362 22-822): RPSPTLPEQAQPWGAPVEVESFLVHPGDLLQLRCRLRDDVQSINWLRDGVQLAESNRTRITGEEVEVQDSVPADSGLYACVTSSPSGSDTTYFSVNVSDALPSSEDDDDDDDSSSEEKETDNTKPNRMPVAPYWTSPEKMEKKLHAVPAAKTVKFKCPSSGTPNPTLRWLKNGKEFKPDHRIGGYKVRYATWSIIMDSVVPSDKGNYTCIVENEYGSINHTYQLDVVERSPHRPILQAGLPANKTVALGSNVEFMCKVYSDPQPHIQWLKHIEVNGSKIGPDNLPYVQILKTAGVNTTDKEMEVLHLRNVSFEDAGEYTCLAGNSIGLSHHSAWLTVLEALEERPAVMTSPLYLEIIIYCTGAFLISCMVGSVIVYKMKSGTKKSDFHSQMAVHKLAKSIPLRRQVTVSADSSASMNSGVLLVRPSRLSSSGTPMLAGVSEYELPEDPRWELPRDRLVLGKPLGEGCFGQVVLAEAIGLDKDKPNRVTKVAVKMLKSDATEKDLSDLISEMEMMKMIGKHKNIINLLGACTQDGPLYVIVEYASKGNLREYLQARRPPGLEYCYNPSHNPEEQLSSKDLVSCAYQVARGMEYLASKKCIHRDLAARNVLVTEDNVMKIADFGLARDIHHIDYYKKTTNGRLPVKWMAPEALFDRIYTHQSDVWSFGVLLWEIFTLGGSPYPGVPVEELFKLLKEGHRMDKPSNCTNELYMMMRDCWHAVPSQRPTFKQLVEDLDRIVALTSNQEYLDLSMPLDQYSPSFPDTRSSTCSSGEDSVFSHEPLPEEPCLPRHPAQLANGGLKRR
T5 sequence (P21802 22-821): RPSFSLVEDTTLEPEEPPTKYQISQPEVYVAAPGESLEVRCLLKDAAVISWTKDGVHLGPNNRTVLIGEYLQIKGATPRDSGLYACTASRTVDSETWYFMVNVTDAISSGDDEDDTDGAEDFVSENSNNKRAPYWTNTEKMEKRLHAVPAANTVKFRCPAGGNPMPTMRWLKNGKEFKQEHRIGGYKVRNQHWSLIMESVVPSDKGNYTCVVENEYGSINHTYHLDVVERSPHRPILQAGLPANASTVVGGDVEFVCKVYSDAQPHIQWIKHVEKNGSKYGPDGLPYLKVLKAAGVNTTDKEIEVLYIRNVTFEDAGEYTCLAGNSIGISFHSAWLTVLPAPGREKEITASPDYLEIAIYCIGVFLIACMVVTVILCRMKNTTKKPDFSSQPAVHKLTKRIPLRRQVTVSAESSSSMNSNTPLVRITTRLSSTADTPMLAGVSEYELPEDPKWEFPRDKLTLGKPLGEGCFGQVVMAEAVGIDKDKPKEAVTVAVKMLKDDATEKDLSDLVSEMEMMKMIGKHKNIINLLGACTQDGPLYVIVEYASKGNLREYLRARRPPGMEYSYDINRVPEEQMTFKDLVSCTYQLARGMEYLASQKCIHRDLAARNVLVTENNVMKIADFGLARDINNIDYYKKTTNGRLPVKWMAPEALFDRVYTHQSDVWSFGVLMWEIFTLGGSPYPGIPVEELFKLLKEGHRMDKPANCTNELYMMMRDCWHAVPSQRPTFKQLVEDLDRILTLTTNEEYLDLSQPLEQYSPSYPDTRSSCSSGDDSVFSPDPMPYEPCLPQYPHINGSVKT

In the case of `COc1cc2[nH]nc(-c3cnc(N4CC(C)(NCC(C)(C)O)C4)c(C#N)c3)c2cc1O[C@H](C)c1c(Cl)cncc1Cl` [Example 55, (R)-5-(5-(1-(3,5-dichloropyridin-4-yl)ethoxy)-6-methoxy-1H-indazol-3-yl)-2-(3-((2-hydroxy-2-methylpropyl)amino)-3-methylazetidin-1-yl)nicotinonitrile], the IC50 (commonly the concentration that gives 50% inhibition) is 0.1 to 50 nM in [1]; 50 to 200 nM in test [2]; 50 to 200 nM in test [3]; 0.1 to 50 nM in [9]; 0.1 to 50 nM in test [10]. Further, the Kd in test [4], in [5], in [6], in test [7] and in test [8] was 1 to 50 nM in each case.

Take `C[C@@H](Oc1ccc2[nH]nc(-c3cnc(N4CC(C)(N5CCOCC5)C4)c(F)c3)c2c1)c1c(Cl)cncc1Cl` [Example 80, (R)-4-(1-(5-(5-(1-(3,5-Dichloropyridin-4-yl)ethoxy)-1H-indazol-3-yl)-3-fluoropyridin-2-yl)-3-methylazetidin-3-yl)morpholine]: the half-inhibitory concentration (IC50) in test [1] lay within 0.1 to 50 nM; in [2], 0.1 to 50 nM; in test [3], 50 to 200 nM; in test [9], 0.1 to 50 nM; in [10] it was 0.1 to 50 nM. The Kd in test [4], in test [5], in test [6], in test [7] and in test [8] was 1 to 50 nM in each case.

As to `C[C@@H](Oc1ccc2[nH]nc(-c3cnc(N4CC(C)(N(C)C)C4)c(F)c3)c2c1)c1c(Cl)cncc1Cl` [Example 81, (R)-1-(5-(5-(1-(3,5-dichloropyridin-4-yl)ethoxy)-1H-indazol-3-yl)-3-fluoropyridin-2-yl)-N,N,3-trimethylazetidin-3-amine], the 50% inhibitory concentration (IC50) in test [1] was 0.1 to 50 nM; in test [2], 50 to 200 nM; in test [3], 50 to 200 nM; in test [9], 0.1 to 50 nM; in test [10], 0.1 to 50 nM. Moreover, the Kd in [4], in test [5], in [6], in [7] and in test [8] was 1 to 50 nM each time.

Turning to `CC[C@@H](C)NC1(C)CN(c2ncc(-c3n[nH]c4ccc(O[C@H](C)c5c(Cl)cncc5Cl)cc34)cc2F)C1` [Example 140, 1-[5-[5-[(1R)-1-(3,5-dichloro-4-pyridyl)ethoxy]-1H-indazol-3-yl]-3-fluoro-2-pyridyl]-3-methyl-N-[(1R)-1-methylpropyl]azetidin-3-amine], the IC50 was in the range of 0.1 to 50 nM in test [1]; 50 to 200 nM in [2]; 50 to 200 nM in test [3]; 0.1 to 50 nM in test [9]; 50 to 200 nM in [10]. Moreover, the Kd in [4], in [5], in test [6], in test [7] and in test [8] was 1 to 50 nM in each case.

With `CC[C@H](C)NC1(C)CN(c2ncc(-c3n[nH]c4ccc(O[C@H](C)c5c(Cl)cncc5Cl)cc34)cc2F)C1` [Example 141, 1-[5-[5-[(1R)-1-(3,5-dichloro-4-pyridyl)ethoxy]-1H-indazol-3-y1]-3-fluoro-2-pyridyl]-3-methyl-N-[(1S)-1-methylpropyl]azetidin-3-amine], the IC50 was 0.1 to 50 nM in test [1]; 50 to 200 nM in test [2]; 50 to 200 nM in test [3]; 0.1 to 50 nM in [9]; 50 to 200 nM in test [10]. The Kd in [4], in test [5], in [6], in [7] and in test [8] was 1 to 50 nM throughout.

Consider `CCCNC1(C)CN(c2ncc(-c3n[nH]c4ccc(O[C@H](C)c5c(Cl)cncc5Cl)cc34)cc2F)C1` [Example 142, 1-[5-[5-[(1R)-1-(3,5-dichloro-4-pyridyl)ethoxy]-1H-indazol-3-yl]-3-fluoro-2-pyridyl]-3-methyl-N-propyl-azetidin-3-amine], for which the IC50 fell in the range of 0.1 to 50 nM in [1]; 50 to 200 nM in [2]; 50 to 200 nM in test [3]; 0.1 to 50 nM in [9]; 50 to 200 nM in [10]. Besides, the Kd in test [4], in test [5], in [6], in test [7] and in test [8] was 1 to 50 nM throughout.

In the case of `C=CCNC1(C)CN(c2ncc(-c3n[nH]c4ccc(O[C@H](C)c5c(Cl)cncc5Cl)cc34)cc2F)C1` [Example 148, (R)-N-ally1-1-(5-(5-(1-(3,5-dichloropyridin-4-yl)ethoxy)-1H-indazol-3-yl)-3-fluoropyridin-2-yl)-3-methylazetidin-3-amine], the concentration for half-maximal inhibition (IC50) in test [1] is 0.1 to 50 nM; in test [2], 50 to 200 nM; in test [3] it was 50 to 200 nM; in [9] it was 0.1 to 50 nM; in [10], 50 to 200 nM. In addition, the dissociation constant Kd in test [4], in test [5], in test [6], in test [7] and in test [8] was 1 to 50 nM each time.

Regarding `C[C@@H](Oc1ccc2[nH]nc(-c3cnc(N4CC(C)(N5CCP(C)(=O)CC5)C4)c(F)c3)c2c1)c1c(Cl)cncc1Cl` [Example 198, (R)-1-(1-(5-(5-(1-(3,5-dichloropyridin-4-yl)ethoxy)-1H-indazol-3-yl)-3-fluoropyridin-2-yl)-3-methylazetidin-3-yl)-4-methyl-1,4-azaphosphinane 4-oxide], the IC50 in test [1] lay within 0.1 to 50 nM; in [2], 0.1 to 50 nM; in test [3] it was 200 to 1000 nM; in [9], 0.1 to 50 nM; in test [10] it was 0.1 to 50 nM. The Kd in test [4], in [5], in test [6], in test [7] and in [8] was 1 to 50 nM each time.

In the case of `C[C@@H](Oc1ccc2[nH]nc(-c3cnc(N4CC(C)(CS(C)(=O)=O)C4)c(F)c3)c2c1)c1c(Cl)cncc1Cl` [Example 199, (R)-5-(1-(3,5-dichloropyridin-4-yl)ethoxy)-3-(5-fluoro-6-(3-methyl-3-((methyl-sulfonyl)meth-yl)azetidin-1-yl)pyridin-3-yl)-1H-indazole], the IC50 in test [1] fell in the range of 0.1 to 50 nM; in test [2], 50 to 200 nM; in test [3], 50 to 200 nM; in test [9] it was 0.1 to 50 nM; in [10], 0.1 to 50 nM. Also, the dissociation constant (Kd) in [4], in test [5], in [6], in test [7] and in [8] was 1 to 50 nM each time.

Turning to `C[C@@H](Oc1ccc2[nH]nc(-c3ccc(N4C[C@@H](CS(C)(=O)=O)[C@@H]4C)nc3)c2c1)c1c(Cl)cncc1Cl` [Example 203, 5-((R)-1-(3,5-dichloropyridin-4-yl)ethoxy)-3-(6-((2S,3R)-2-methyl-3-((methyl-sulfonyl)meth-yl)azetidin-1-yl)pyridin-3-yl)-1H-indazole], the IC50 in test [1] was in the range of 0.1 to 50 nM; in [2] it was 0.1 to 50 nM; in [3], 50 to 200 nM; in test [9] it was 0.1 to 50 nM; in [10], 50 to 200 nM. Also, the Kd in [4], in test [5], in [6], in [7] and in test [8] was 1 to 50 nM in each case.

In the case of `C[C@@H]1[C@@H](CS(C)(=O)=O)CN1c1ccc(-c2n[nH]c3ccc(O[C@H](C)c4c(Cl)cncc4Cl)cc23)cn1` [Example 204, 5-((R)-1-(3,5-dichloropyridin-4-yl)ethoxy)-3-(6-((2R,3S)-2-methyl-3-((methyl-sulfonyl)meth-yl)azetidin-1-yl)pyridin-3-yl)-1H-indazole], the IC50 in test [1] fell in the range of 0.1 to 50 nM; in [2] it was 0.1 to 50 nM; in test [3] it was 50 to 200 nM; in test [9], 0.1 to 50 nM; in test [10] it was 50 to 200 nM. The Kd in [4], in [5], in test [6], in test [7] and in test [8] was 1 to 50 nM throughout.
